Test results as given in ChEMBL document CHEMBL1765029, “Synthesis and biological evaluation of estradiol linked pyrrolo[2,1-c][1,4]benzodiazepine (PBD) conjugates as potential anticancer agents” (2011).

System: MCF7
Experiment: Cytotoxicity against human MCF7 cells by sulforhodamine B method
Format: functional

SMILES	GI50
COc1cc2c(cc1OCCCCCN1CCN(CCCCCOc3ccc4c(c3)CC[C@@H]3[C@@H]4CC[C@]4(C)[C@@H](O)CC[C@@H]34)CC1)N=C[C@@H]1C[C@@H](F)CN1C2=O	130 nM
COc1cc2c(cc1OCCCOc1ccc3c(c1)CC[C@@H]1[C@@H]3CC[C@]3(C)[C@@H](O)CC[C@@H]13)N=C[C@@H]1C[C@@H](F)CN1C2=O	140 nM
COc1cc2c(cc1OCCCCCN1CCN(CCCCCOc3ccc4c(c3)CC[C@@H]3[C@@H]4CC[C@]4(C)[C@@H](O)CC[C@@H]34)CC1)N=C[C@@H]1CCCN1C2=O	140 nM
COc1cc2c(cc1OCc1cn(CCCOc3ccc4c(c3)CC[C@@H]3[C@@H]4CC[C@]4(C)[C@@H](O)CC[C@@H]34)nn1)N=C[C@@H]1CC(F)(F)CN1C2=O	110 nM
COc1cc2c(cc1OCCCN1CCN(CCCOc3ccc4c(c3)CC[C@@H]3[C@@H]4CC[C@]4(C)[C@@H](O)CC[C@@H]34)CC1)N=C[C@@H]1CC(F)(F)CN1C2=O	< 100 nM

System: A549
Experiment: Cytotoxicity against human A549 cells by sulforhodamine B method
Format: functional

SMILES	GI50
COc1cc2c(cc1OCCCCCN1CCN(CCCCCOc3ccc4c(c3)CC[C@@H]3[C@@H]4CC[C@]4(C)[C@@H](O)CC[C@@H]34)CC1)N=C[C@@H]1C[C@@H](F)CN1C2=O	110 nM
COc1cc2c(cc1OCCCOc1ccc3c(c1)CC[C@@H]1[C@@H]3CC[C@]3(C)[C@@H](O)CC[C@@H]13)N=C[C@@H]1C[C@@H](F)CN1C2=O	180 nM
COc1cc2c(cc1OCCCCCN1CCN(CCCCCOc3ccc4c(c3)CC[C@@H]3[C@@H]4CC[C@]4(C)[C@@H](O)CC[C@@H]34)CC1)N=C[C@@H]1CCCN1C2=O	160 nM
COc1cc2c(cc1OCc1cn(CCCOc3ccc4c(c3)CC[C@@H]3[C@@H]4CC[C@]4(C)[C@@H](O)CC[C@@H]34)nn1)N=C[C@@H]1CC(F)(F)CN1C2=O	170 nM
COc1cc2c(cc1OCCCN1CCN(CCCOc3ccc4c(c3)CC[C@@H]3[C@@H]4CC[C@]4(C)[C@@H](O)CC[C@@H]34)CC1)N=C[C@@H]1CC(F)(F)CN1C2=O	120 nM

System: ZR-75-1
Experiment: Cytotoxicity against human ZR-75-1 cells by sulforhodamine B method
Format: functional

SMILES	GI50
COc1cc2c(cc1OCCCCCN1CCN(CCCCCOc3ccc4c(c3)CC[C@@H]3[C@@H]4CC[C@]4(C)[C@@H](O)CC[C@@H]34)CC1)N=C[C@@H]1C[C@@H](F)CN1C2=O	< 100 nM
COc1cc2c(cc1OCCCOc1ccc3c(c1)CC[C@@H]1[C@@H]3CC[C@]3(C)[C@@H](O)CC[C@@H]13)N=C[C@@H]1C[C@@H](F)CN1C2=O	140 nM
COc1cc2c(cc1OCCCCCN1CCN(CCCCCOc3ccc4c(c3)CC[C@@H]3[C@@H]4CC[C@]4(C)[C@@H](O)CC[C@@H]34)CC1)N=C[C@@H]1CCCN1C2=O	170 nM
COc1cc2c(cc1OCc1cn(CCCOc3ccc4c(c3)CC[C@@H]3[C@@H]4CC[C@]4(C)[C@@H](O)CC[C@@H]34)nn1)N=C[C@@H]1CC(F)(F)CN1C2=O	170 nM
COc1cc2c(cc1OCCCN1CCN(CCCOc3ccc4c(c3)CC[C@@H]3[C@@H]4CC[C@]4(C)[C@@H](O)CC[C@@H]34)CC1)N=C[C@@H]1CC(F)(F)CN1C2=O	120 nM

System: KB
Experiment: Cytotoxicity against human KB cells by sulforhodamine B method
Format: functional

SMILES	GI50
COc1cc2c(cc1OCCCCCN1CCN(CCCCCOc3ccc4c(c3)CC[C@@H]3[C@@H]4CC[C@]4(C)[C@@H](O)CC[C@@H]34)CC1)N=C[C@@H]1C[C@@H](F)CN1C2=O	140 nM
COc1cc2c(cc1OCCCOc1ccc3c(c1)CC[C@@H]1[C@@H]3CC[C@]3(C)[C@@H](O)CC[C@@H]13)N=C[C@@H]1C[C@@H](F)CN1C2=O	2160 nM
COc1cc2c(cc1OCCCCCN1CCN(CCCCCOc3ccc4c(c3)CC[C@@H]3[C@@H]4CC[C@]4(C)[C@@H](O)CC[C@@H]34)CC1)N=C[C@@H]1CCCN1C2=O	190 nM
COc1cc2c(cc1OCc1cn(CCCOc3ccc4c(c3)CC[C@@H]3[C@@H]4CC[C@]4(C)[C@@H](O)CC[C@@H]34)nn1)N=C[C@@H]1CC(F)(F)CN1C2=O	190 nM
COc1cc2c(cc1OCCCN1CCN(CCCOc3ccc4c(c3)CC[C@@H]3[C@@H]4CC[C@]4(C)[C@@H](O)CC[C@@H]34)CC1)N=C[C@@H]1CC(F)(F)CN1C2=O	170 nM

System: HOP-62
Experiment: Cytotoxicity against human HOP62 cells by sulforhodamine B method
Format: functional

SMILES	GI50
COc1cc2c(cc1OCCCCCN1CCN(CCCCCOc3ccc4c(c3)CC[C@@H]3[C@@H]4CC[C@]4(C)[C@@H](O)CC[C@@H]34)CC1)N=C[C@@H]1C[C@@H](F)CN1C2=O	130 nM
COc1cc2c(cc1OCCCOc1ccc3c(c1)CC[C@@H]1[C@@H]3CC[C@]3(C)[C@@H](O)CC[C@@H]13)N=C[C@@H]1C[C@@H](F)CN1C2=O	180 nM
COc1cc2c(cc1OCCCCCN1CCN(CCCCCOc3ccc4c(c3)CC[C@@H]3[C@@H]4CC[C@]4(C)[C@@H](O)CC[C@@H]34)CC1)N=C[C@@H]1CCCN1C2=O	1170 nM
COc1cc2c(cc1OCc1cn(CCCOc3ccc4c(c3)CC[C@@H]3[C@@H]4CC[C@]4(C)[C@@H](O)CC[C@@H]34)nn1)N=C[C@@H]1CC(F)(F)CN1C2=O	180 nM
COc1cc2c(cc1OCCCN1CCN(CCCOc3ccc4c(c3)CC[C@@H]3[C@@H]4CC[C@]4(C)[C@@H](O)CC[C@@H]34)CC1)N=C[C@@H]1CC(F)(F)CN1C2=O	150 nM

System: not listed separately
Experiment: Cytotoxicity against human DWD cells by sulforhodamine B method
Format: functional

SMILES	GI50
COc1cc2c(cc1OCCCCCN1CCN(CCCCCOc3ccc4c(c3)CC[C@@H]3[C@@H]4CC[C@]4(C)[C@@H](O)CC[C@@H]34)CC1)N=C[C@@H]1C[C@@H](F)CN1C2=O	150 nM
COc1cc2c(cc1OCCCOc1ccc3c(c1)CC[C@@H]1[C@@H]3CC[C@]3(C)[C@@H](O)CC[C@@H]13)N=C[C@@H]1C[C@@H](F)CN1C2=O	1700 nM
COc1cc2c(cc1OCCCCCN1CCN(CCCCCOc3ccc4c(c3)CC[C@@H]3[C@@H]4CC[C@]4(C)[C@@H](O)CC[C@@H]34)CC1)N=C[C@@H]1CCCN1C2=O	170 nM
COc1cc2c(cc1OCc1cn(CCCOc3ccc4c(c3)CC[C@@H]3[C@@H]4CC[C@]4(C)[C@@H](O)CC[C@@H]34)nn1)N=C[C@@H]1CC(F)(F)CN1C2=O	170 nM
COc1cc2c(cc1OCCCN1CCN(CCCOc3ccc4c(c3)CC[C@@H]3[C@@H]4CC[C@]4(C)[C@@H](O)CC[C@@H]34)CC1)N=C[C@@H]1CC(F)(F)CN1C2=O	100 nM

System: not listed separately
Experiment: Cytotoxicity against human Gurav cells by sulforhodamine B method
Format: functional

SMILES	GI50
COc1cc2c(cc1OCCCCCN1CCN(CCCCCOc3ccc4c(c3)CC[C@@H]3[C@@H]4CC[C@]4(C)[C@@H](O)CC[C@@H]34)CC1)N=C[C@@H]1C[C@@H](F)CN1C2=O	130 nM
COc1cc2c(cc1OCCCOc1ccc3c(c1)CC[C@@H]1[C@@H]3CC[C@]3(C)[C@@H](O)CC[C@@H]13)N=C[C@@H]1C[C@@H](F)CN1C2=O	190 nM
COc1cc2c(cc1OCCCCCN1CCN(CCCCCOc3ccc4c(c3)CC[C@@H]3[C@@H]4CC[C@]4(C)[C@@H](O)CC[C@@H]34)CC1)N=C[C@@H]1CCCN1C2=O	190 nM
COc1cc2c(cc1OCc1cn(CCCOc3ccc4c(c3)CC[C@@H]3[C@@H]4CC[C@]4(C)[C@@H](O)CC[C@@H]34)nn1)N=C[C@@H]1CC(F)(F)CN1C2=O	170 nM
COc1cc2c(cc1OCCCN1CCN(CCCOc3ccc4c(c3)CC[C@@H]3[C@@H]4CC[C@]4(C)[C@@H](O)CC[C@@H]34)CC1)N=C[C@@H]1CC(F)(F)CN1C2=O	130 nM

System: PC-3
Experiment: Cytotoxicity against human PC3 cells by sulforhodamine B method
Format: functional

SMILES	GI50
COc1cc2c(cc1OCCCCCN1CCN(CCCCCOc3ccc4c(c3)CC[C@@H]3[C@@H]4CC[C@]4(C)[C@@H](O)CC[C@@H]34)CC1)N=C[C@@H]1C[C@@H](F)CN1C2=O	170 nM
COc1cc2c(cc1OCCCOc1ccc3c(c1)CC[C@@H]1[C@@H]3CC[C@]3(C)[C@@H](O)CC[C@@H]13)N=C[C@@H]1C[C@@H](F)CN1C2=O	190 nM
COc1cc2c(cc1OCCCCCN1CCN(CCCCCOc3ccc4c(c3)CC[C@@H]3[C@@H]4CC[C@]4(C)[C@@H](O)CC[C@@H]34)CC1)N=C[C@@H]1CCCN1C2=O	190 nM
COc1cc2c(cc1OCc1cn(CCCOc3ccc4c(c3)CC[C@@H]3[C@@H]4CC[C@]4(C)[C@@H](O)CC[C@@H]34)nn1)N=C[C@@H]1CC(F)(F)CN1C2=O	140 nM
COc1cc2c(cc1OCCCN1CCN(CCCOc3ccc4c(c3)CC[C@@H]3[C@@H]4CC[C@]4(C)[C@@H](O)CC[C@@H]34)CC1)N=C[C@@H]1CC(F)(F)CN1C2=O	130 nM

System: COLO 205
Experiment: Cytotoxicity against human COLO205 cells by sulforhodamine B method
Format: functional

SMILES	GI50
COc1cc2c(cc1OCCCCCN1CCN(CCCCCOc3ccc4c(c3)CC[C@@H]3[C@@H]4CC[C@]4(C)[C@@H](O)CC[C@@H]34)CC1)N=C[C@@H]1C[C@@H](F)CN1C2=O	140 nM
COc1cc2c(cc1OCCCOc1ccc3c(c1)CC[C@@H]1[C@@H]3CC[C@]3(C)[C@@H](O)CC[C@@H]13)N=C[C@@H]1C[C@@H](F)CN1C2=O	160 nM
COc1cc2c(cc1OCCCCCN1CCN(CCCCCOc3ccc4c(c3)CC[C@@H]3[C@@H]4CC[C@]4(C)[C@@H](O)CC[C@@H]34)CC1)N=C[C@@H]1CCCN1C2=O	1160 nM
COc1cc2c(cc1OCc1cn(CCCOc3ccc4c(c3)CC[C@@H]3[C@@H]4CC[C@]4(C)[C@@H](O)CC[C@@H]34)nn1)N=C[C@@H]1CC(F)(F)CN1C2=O	140 nM
COc1cc2c(cc1OCCCN1CCN(CCCOc3ccc4c(c3)CC[C@@H]3[C@@H]4CC[C@]4(C)[C@@H](O)CC[C@@H]34)CC1)N=C[C@@H]1CC(F)(F)CN1C2=O	140 nM

System: A2780
Experiment: Cytotoxicity against human A2780 cells by sulforhodamine B method
Format: functional

SMILES	GI50
COc1cc2c(cc1OCCCCCN1CCN(CCCCCOc3ccc4c(c3)CC[C@@H]3[C@@H]4CC[C@]4(C)[C@@H](O)CC[C@@H]34)CC1)N=C[C@@H]1C[C@@H](F)CN1C2=O	110 nM
COc1cc2c(cc1OCCCOc1ccc3c(c1)CC[C@@H]1[C@@H]3CC[C@]3(C)[C@@H](O)CC[C@@H]13)N=C[C@@H]1C[C@@H](F)CN1C2=O	170 nM
COc1cc2c(cc1OCCCCCN1CCN(CCCCCOc3ccc4c(c3)CC[C@@H]3[C@@H]4CC[C@]4(C)[C@@H](O)CC[C@@H]34)CC1)N=C[C@@H]1CCCN1C2=O	1700 nM
COc1cc2c(cc1OCc1cn(CCCOc3ccc4c(c3)CC[C@@H]3[C@@H]4CC[C@]4(C)[C@@H](O)CC[C@@H]34)nn1)N=C[C@@H]1CC(F)(F)CN1C2=O	1270 nM
COc1cc2c(cc1OCCCN1CCN(CCCOc3ccc4c(c3)CC[C@@H]3[C@@H]4CC[C@]4(C)[C@@H](O)CC[C@@H]34)CC1)N=C[C@@H]1CC(F)(F)CN1C2=O	110 nM

System: SiHa
Experiment: Cytotoxicity against human SiHa cells by sulforhodamine B method
Format: functional

SMILES	GI50
COc1cc2c(cc1OCCCCCN1CCN(CCCCCOc3ccc4c(c3)CC[C@@H]3[C@@H]4CC[C@]4(C)[C@@H](O)CC[C@@H]34)CC1)N=C[C@@H]1C[C@@H](F)CN1C2=O	160 nM
COc1cc2c(cc1OCCCOc1ccc3c(c1)CC[C@@H]1[C@@H]3CC[C@]3(C)[C@@H](O)CC[C@@H]13)N=C[C@@H]1C[C@@H](F)CN1C2=O	2120 nM
COc1cc2c(cc1OCCCCCN1CCN(CCCCCOc3ccc4c(c3)CC[C@@H]3[C@@H]4CC[C@]4(C)[C@@H](O)CC[C@@H]34)CC1)N=C[C@@H]1CCCN1C2=O	170 nM
COc1cc2c(cc1OCc1cn(CCCOc3ccc4c(c3)CC[C@@H]3[C@@H]4CC[C@]4(C)[C@@H](O)CC[C@@H]34)nn1)N=C[C@@H]1CC(F)(F)CN1C2=O	1120 nM
COc1cc2c(cc1OCCCN1CCN(CCCOc3ccc4c(c3)CC[C@@H]3[C@@H]4CC[C@]4(C)[C@@H](O)CC[C@@H]34)CC1)N=C[C@@H]1CC(F)(F)CN1C2=O	160 nM
